In patent US12043602B2, “Fendiline derivatives” (The Board of Regents of the University of Texas System, priority 2019, dated 2024):

Assays:
mGFP-K-RASG12V = mGFP-K-RASG12V (Homo sapiens (Human), UniProt P01116, G12V); experiment: K-Ras mislocalization assay (confocal microscopy, Manders coefficient); assay type: cell-based; design: key to Emax: Manders coefficient: fraction of mCherry-CAAX co-localizing with GFP-K-Ras; settings: MDCK cells, 48 h
How it was run: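 Readout is the Manders coefficient: share of mCherry-CAAX overlapping mGFP-K-RASG12V in confocal images, proportional to K-Ras mislocalization. Stable MDCK co-expressing lines were exposed 48 h to various drug concentrations or 0.1% DMSO vehicle, then paraformaldehyde-fixed.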

[1] = tested on: BxPC-3 (WT) pancreatic tumor cells; experiment: CyQUANT proliferation assay; assay type: cell-based; design: key to IC50 proliferation BxPC-3 (WT): NE—Not efficacious; settings: 72 h
Protocol: (§1) Madine Darby Canine Kidney epithelial cells (MDCK) stably co-expressing mGFP-tagged full length oncogenic mutant K-Ras (GFP—K-RASG12V) or mGFP-LactC2 (peptide probe for phosphatidylserine) and mCherry-tagged to the amino acids 179-189 of H-RasC181S, C184S (mCherry-CAAX, localizes primarily to endomembranes) were grown in DMEM-high glucose/sodium pyruvate/10% FBS. The medium was supplemented with 1× Penicillin/Streptomycin for fluorescence microscopy assays, to avoid any microbial contamination from the test compounds added. KLE and Hec50 cells were maintained in DMEM-F-12 medium supplemented with 10% FBS. Hec-1A and Hec-1B cells were grown in McCoy's 5a medium supplemented with 10% FBS. ESS-1 cells were grown in RPMI 1640 medium supplemented with 20% FBS. MPanc96 cells were grown in DMEM supplemented with 10% FBS, MiaPaCa-2 cells in DMEM supplemented with 10% FBS and 2.5% horse serum and all other cell lines were grown in RPMI 1640 supplemented with 10% FBS. All cancer cell media were supplemented with ×Penicillin/Streptomycin. All cell lines were grown at 37° C. with 5% CO2.
(§2) Cells were seeded in 96-well plates. After 24 h, fresh growth medium supplemented with 0.1% vehicle (DMSO), or various concentrations of drugs was added and cells were grown for 72 h. Cell numbers were quantified using the CyQUANT® Cell Proliferation Assay Kit (Molecular Probes, Life Technologies), according to the manufacturer's protocol. Fluorescence measurement was used as a measure of live cell number.

[2] = tested on: MOH (Mut) pancreatic tumor cells; experiment: CyQUANT proliferation assay; assay type: cell-based; design: key to IC50 proliferation MOH (Mut): NE—Not efficacious; settings: 72 h
Protocol: as §1, §2

[3] = tested on: HPAC (Mut) pancreatic tumor cells; experiment: CyQUANT proliferation assay; assay type: cell-based; design: key to IC50 proliferation HPAC (Mut): NE—Not efficacious; settings: 72 h
Protocol: as §1, §2

[4] = tested on: NCI H522 (WT) lung tumor cells; experiment: CyQUANT proliferation assay; assay type: cell-based; design: key to IC50 proliferation NCI H522 (WT): NE—Not efficacious; settings: 72 h
Protocol: as §1, §2

[5] = tested on: NCI-H23 (Mut) lung tumor cells; experiment: CyQUANT proliferation assay; assay type: cell-based; design: key to IC50 proliferation NCI-H23 (Mut): NE—Not efficacious; settings: 72 h
Protocol: as §1, §2

[6] = tested on: H1925 (WT) lung tumor cells; experiment: CyQUANT proliferation assay; assay type: cell-based; design: key: NE—Not efficacious; settings: 72 h
Protocol: as §1, §2

[7] = tested on: KLE (WT) endometrial tumor cells; experiment: CyQUANT proliferation assay; assay type: cell-based; design: key: NE—Not efficacious; settings: 72 h
Protocol: as §1, §2

[8] = tested on: SW1116 (Mut) colon tumor cells; experiment: CyQUANT proliferation assay; assay type: cell-based; design: key: NE—Not efficacious; settings: 72 h
Protocol: as §1, §2

[9] = tested on: Ishikawa (WT) endometrial tumor cells; experiment: CyQUANT proliferation assay; assay type: cell-based; design: key to IC50 proliferation Ishikawa (WT): NE—Not efficacious; settings: 72 h
Protocol: as §1, §2

[10] = tested on: MDCK cells co-expressing GFP-K-RASG12V and mCherry-CAAX; experiment: Cytotoxicity in mislocalization screen (death of all cells in well); settings: drug caused death of all cells in well at 30 μM

## CN1CCN(CCN(CC=C(c2ccccc2)c2ccccc2)[C@@H]2C[C@H]2c2ccccc2)CC1 [NY0590, (1R,2S)-N-(3,3-diphenylallyl)-N-(2-(4-methylpiperazin-1-yl)ethyl)-2-phenylcyclopropan-1-amine]
mGFP-K-RASG12V; batch 4 compounds, title calls it IC50, read-out: EC50
  EC50: 0.945 µM
mGFP-K-RASG12V; maximal effect, Manders coefficient
  Emax: 0.893
[1]
  IC50 proliferation BxPC-3 (WT): NE
[2]
  IC50 proliferation MOH (Mut): NE
[3]
  IC50 proliferation HPAC (Mut): NE
[4]
  IC50 proliferation NCI H522 (WT): NE
[5]
  IC50 proliferation NCI-H23 (Mut): NE
[6]
  Potency proliferation H1925 (WT): NE
[7]
  IC50 proliferation KLE (WT): NE
[8]
  Potency proliferation SW1116 (Mut): NE
[9]
  IC50 proliferation Ishikawa (WT): NE
[10]
  Cytotoxic at 30 μM: Yes
